{"source": "patent US20070128217A1", "about": "(priority 2003, published 2007)", "key": {"[1]": {"system": "antibodies in sera from SARS patients (sera 1a, 1b, 2, 6, 37, 62, London, SARS-yellow, SARS-green)", "type": "binding, human", "set-up": "Binding of serum 6 to linear peptides of protein X1 of SARS-CoV Urbani / Binding of serum 37 to linear peptides of protein X1 of SARS-CoV Urbani / Binding of serum 6 to looped/cyclic peptide (PEPSCAN-ELISA) / Binding of serum 37 to looped/cyclic peptide (PEPSCAN-ELISA) / Binding of serum 37 to looped/cyclic peptides of protein X1 of SARS-CoV Urbani / Binding of serum 6 to linear peptides of protein X2 / Binding of serum 37 to linear peptides of protein X2 / Binding of serum 37 to looped/cyclic peptides of protein X2 of SARS-CoV Urbani / Binding of serum 6 to linear peptides of protein M of SARS-CoV Urbani / Binding of serum 37 to linear peptides of protein M of SARS-CoV Urbani / Binding of serum 6 to looped/cyclic peptides of protein M of SARS-CoV Urbani / Binding of serum 37 to looped/cyclic peptides of protein M of SARS-CoV Urbani / Binding of serum 6 to linear peptides of protein X3 of SARS-CoV Urbani / Binding of serum 37 to linear peptides of protein X3 of SARS-CoV Urbani / Binding of serum 37 to looped/cyclic peptides of protein X3 of SARS-CoV Urbani / Binding of serum 6 to linear peptides of protein X4 of SARS-CoV Urbani / Binding of serum 37 to linear peptides of protein X4 of SARS-CoV Urbani / Binding of serum 37 to looped/cyclic peptides of protein X4 of SARS-CoV Urbani / Binding of serum 6 to linear peptides of protein X5 of SARS-CoV Urbani / Binding of serum 37 to linear peptides of protein X5 of SARS-CoV Urbani / Binding of serum 37 to looped/cyclic peptides of protein X5 of SARS-CoV Urbani / Binding of serum 6 to linear peptides of protein N of SARS-CoV Urbani / Binding of serum 37 to linear peptides of protein N of SARS-CoV Urbani / Binding of serum 6 to linear peptide (PEPSCAN-ELISA) / Binding of serum 1a to looped/cyclic peptides of protein N of SARS-CoV Urbani / Binding of serum 1b to looped/cyclic peptides of protein N of SARS-CoV Urbani / Binding of serum 2 to looped/cyclic peptides of protein N of SARS-CoV Urbani / Binding of serum 6 to looped/cyclic peptides of protein N of SARS-CoV Urbani / Binding of serum 37 to looped/cyclic peptides of protein N of SARS-CoV Urbani / Binding of serum 62 to looped/cyclic peptides of protein N of SARS-CoV Urbani / Binding of serum London to looped/cyclic peptides of protein N of SARS-CoV Urbani / Binding of serum SARS-green to looped/cyclic peptides of protein N of SARS-CoV Urbani: unit not given here"}, "[2]": {"system": "rabbit serum obtained by immunizing a rabbit with the SARS-CoV strain Frankfurt 1", "type": "binding", "set-up": "Binding of a rabbit serum to linear peptides / Binding of a rabbit serum to looped peptides / Rabbit serum linear peptides / Rabbit serum looped peptides / Binding of a rabbit serum to linear peptides of protein N of SARS-CoV Urbani (Rabbit serum linear peptides) / Binding of a rabbit serum to looped/cyclic peptides of protein N of SARS-CoV Urbani (Rabbit serum looped peptides): unit not given here"}, "[3]": {"system": "control sera (pooled serum of ten healthy LUMC hospital workers; commercial negative donor pooled serum from the Dutch bloodbank)", "type": "binding, human", "set-up": "Binding of Control serum LUMC to linear peptides / Binding of Control serum Blood-bank to linear peptides / Binding of Control serum LUMC to looped peptides / Binding of Control Serum Blood-Bank to Looped peptides / Binding of Control serum LUMC to linear peptides of the protein M of SARS-CoV Urbani / Binding of Control serum Blood-bank to linear peptides of the protein M of SARS-CoV Urbani / Binding of Control serum LUMC to looped peptides of the protein M of SARS-CoV Urbani / Binding of Control Serum Blood-Bank to Looped peptides of the protein M of SARS-CoV Urbani: unit not given here"}}}
{"sequence": "VVHGYFTEVYYQLES", "values": [{"measurement": "Binding of serum 1a to linear peptides of protein X1 of SARS-CoV Urbani", "setting": "[1]", "result": 0.8}, {"measurement": "Binding of serum 1a to looped/cyclic peptides of protein X1 of SARS-CoV Urbani", "setting": "[1]", "result": 0.6}, {"measurement": "Binding of serum 1b to linear peptides of protein X1 of SARS-CoV Urbani", "setting": "[1]", "result": 0.7}, {"measurement": "Binding of serum 1b to looped/cyclic peptides of protein X1 of SARS-CoV Urbani", "setting": "[1]", "result": 0.4}, {"measurement": "Binding of serum 2 to linear peptides of protein X1 of SARS-CoV Urbani", "setting": "[1]", "result": 0.4}, {"measurement": "Binding of serum 2 to looped/cyclic peptides of protein X1 of SARS-CoV Urbani", "setting": "[1]", "result": 0.4}, {"measurement": "Binding of serum 6 to linear peptides of protein X1 of SARS-CoV Urbani", "setting": "[1]", "result": 0.3}, {"measurement": "Binding of serum 6 to looped/cyclic peptides of protein X1 of SARS-CoV Urbani", "setting": "[1]", "result": 0.3}, {"measurement": "Binding of serum 37 to linear peptides of protein X1 of SARS-CoV Urbani", "setting": "[1]", "result": 0.5}, {"measurement": "Binding of serum 37 to looped/cyclic peptides of protein X1 of SARS-CoV Urbani", "setting": "[1]", "result": 0.6}, {"measurement": "Binding of serum 62 to linear peptides of protein X1 of SARS-CoV Urbani", "setting": "[1]", "result": 0.4}, {"measurement": "Binding of serum 62 to looped/cyclic peptides of protein X1 of SARS-CoV Urbani", "setting": "[1]", "result": 0.5}, {"measurement": "Binding of serum London to linear peptides of protein X1 of SARS-CoV Urbani", "setting": "[1]", "result": 0.2}, {"measurement": "Binding of serum London to looped/cyclic peptides of protein X1 of SARS-CoV Urbani", "setting": "[1]", "result": 0.2}, {"measurement": "Binding of serum SARS-green to linear peptides of protein X1 of SARS-CoV Urbani", "setting": "[1]", "result": 0.2}, {"measurement": "Binding of serum SARS-green to looped/cyclic peptides of protein X1 of SARS-CoV Urbani", "setting": "[1]", "result": 0.2}, {"measurement": "Binding of serum SARS-yellow to linear peptides of protein X1 of SARS-CoV Urbani", "setting": "[1]", "result": 0.3}, {"measurement": "Binding of serum SARS-yellow to looped/cyclic peptides of protein X1 of SARS-CoV Urbani", "setting": "[1]", "result": 0.4}, {"measurement": "Binding of a rabbit serum to linear peptides", "setting": "[2]", "result": 0.1}, {"measurement": "Binding of a rabbit serum to looped peptides", "setting": "[2]", "result": 0.7}, {"measurement": "Binding of Control Serum Blood-Bank to Looped peptides", "setting": "[3]", "result": 0.4}, {"measurement": "Binding of Control serum Blood-bank to linear peptides", "setting": "[3]", "result": 0.4}, {"measurement": "Binding of Control serum LUMC to linear peptides", "setting": "[3]", "result": 0.8}, {"measurement": "Binding of Control serum LUMC to looped peptides", "setting": "[3]", "result": 0.6}]}
{"sequence": "VVILRIGTQVLKTMS", "values": [{"measurement": "Binding of serum 1a to linear peptides of protein X2", "setting": "[1]", "result": 0.6}, {"measurement": "Binding of serum 1a to looped/cyclic peptides of protein X2 of SARS-CoV Urbani", "setting": "[1]", "result": 0.4}, {"measurement": "Binding of serum 1b to linear peptides of protein X2", "setting": "[1]", "result": 0.5}, {"measurement": "Binding of serum 1b to looped/cyclic peptides of protein X2 of SARS-CoV Urbani", "setting": "[1]", "result": 0.4}, {"measurement": "Binding of serum 2 to linear peptides of protein X2", "setting": "[1]", "result": 0.5}, {"measurement": "Binding of serum 2 to looped/cyclic peptides of protein X2 of SARS-CoV Urbani", "setting": "[1]", "result": 0.3}, {"measurement": "Binding of serum 6 to linear peptides of protein X2", "setting": "[1]", "result": 0.5}, {"measurement": "Binding of serum 6 to looped/cyclic peptides of protein X2 of SARS-CoV Urbani", "setting": "[1]", "result": 0.3}, {"measurement": "Binding of serum 37 to linear peptides of protein X2", "setting": "[1]", "result": 0.6}, {"measurement": "Binding of serum 37 to looped/cyclic peptides of protein X2 of SARS-CoV Urbani", "setting": "[1]", "result": 0.3}, {"measurement": "Binding of serum 62 to linear peptides of protein X2", "setting": "[1]", "result": 0.6}, {"measurement": "Binding of serum 62 to looped/cyclic peptides of protein X2 of SARS-CoV Urbani", "setting": "[1]", "result": 0.4}, {"measurement": "Binding of serum London to linear peptides of protein X2", "setting": "[1]", "result": 0.4}, {"measurement": "Binding of serum London to looped/cyclic peptides of protein X2 of SARS-CoV Urbani", "setting": "[1]", "result": 0.2}, {"measurement": "Binding of serum SARS-green to linear peptides of protein X2", "setting": "[1]", "result": 0.5}, {"measurement": "Binding of serum SARS-green to looped/cyclic peptides of protein X2 of SARS-CoV Urbani", "setting": "[1]", "result": 0.3}, {"measurement": "Binding of serum SARS-yellow to linear peptides of protein X2", "setting": "[1]", "result": 0.6}, {"measurement": "Binding of serum SARS-yellow to looped/cyclic peptides of protein X2 of SARS-CoV Urbani", "setting": "[1]", "result": 0.4}, {"measurement": "Binding of a rabbit serum to linear peptides", "setting": "[2]", "result": 0.4}, {"measurement": "Binding of a rabbit serum to looped peptides", "setting": "[2]", "result": 0.4}, {"measurement": "Binding of Control Serum Blood-Bank to Looped peptides", "setting": "[3]", "result": 0.3}, {"measurement": "Binding of Control serum Blood-bank to linear peptides", "setting": "[3]", "result": 0.7}, {"measurement": "Binding of Control serum LUMC to linear peptides", "setting": "[3]", "result": 0.5}, {"measurement": "Binding of Control serum LUMC to looped peptides", "setting": "[3]", "result": 0.3}]}
